Laboratory results: US8518958B2, “Pyrido [2,3-D] pyrimidines and their use as kinase inhibitors” (Forma Therapeutics, Inc., priority 2006, dated 2013)

Legend:
HT-29 tumor cells = assay: Anti-proliferative activity, SRB assay; format: cell-based, human; conditions: Homo sapiens, HT-29, 72 h, 72 hours exposure, read-out: CELLULAR IC50 HT-29
In short: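 IC50 derived from % inhibition relative to DMSO controls, measured by sulforhodamine B binding (OD570) after TCA fixation. Cells (3,000-15,000 per well) were seeded a day ahead, then treated with graded compound concentrations for 72 hours.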

B-Raf delta1-415 = B-Raf delta1-415 (Homo sapiens, UniProt P15056); assay: B-Raf kinase inhibition (MAPH filter plate, 33P-ATP, MEK1 substrate); conditions: read-out: Biochemical IC50 B-Raf
In short: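 IC50 values come from dilution series (top 10 μM) measured by scintillation counting of 33P-labelled MEK1 retained on H3PO4-washed filters. Reactions ran 1 h at room temperature in pH 7.0 Mops buffer with MgCl2, MnCl2 and DTT, using 12.5 μCi/ml [γ-33P]ATP and B-Raf delta1-415 titrated to 50% turnover.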

[1] = molecular target: C-Raf Raf-1 (truncated), active (Homo sapiens, UniProt P04049, Y340D/Y341D); assay: C-Raf kinase inhibition (MAPH assay / IMAP assay); conditions: read-out: Biochemical IC50 C-Raf
Text: We characterized the in vitro inhibitory activity against protein kinases of compounds of the present invention by determining their IC50 values (see Table 2).
Kinase: C-Raf Raf-1 (truncated), active (Upstate; cat. no. 14-352)
Reaction Temperature: room temperature
Assay Plate: 96 well U bottom plate (Greiner, 650161)
MultiScreen-PH Plate: 96 well MAPH Filter Plates (Millipore, MAPHNOB50)
Filter Washing Solution: 0.75% H3PO4
Scintillation Liquid: Supermix Liquid Scintillator (PerkinElmer, 1200-439)
Negative Control (C−): 100 mM EDTA, no inhibitor
Positive Control (C+): no inhibitor
Reaction Buffer (Final Concentration):
Final Assay Concentrations:
Kinase: Use kinase conc. yielding 10% ATP turnover as determined in titration experiment.
Adenosine 5′-[γ-^33P]triphosphate: 12.5 μCi/ml (Amersham Biosciences, BF1000)
Substrate: Myelin Basic Protein 57.8 μM (Invitrogen, 13228-010)
Pipetting Sequence: • 1) Add 10 μl 4-fold concentrated substrate+4-fold concentrated ATP in 3-fold concentrated reaction buffer to each well of assay plate • 2) Add 10 μl […] concentrated inhibitor in 4% DMSO in H2O to each well except to C− and C+ wells (starting point: final inhibitor concentration 10 μM; IC50 determination based on dilution series) • 3) Add 10 μl 4% DMSO in H2O to C− and C+ wells • 4) Add 10 μl 500 mM EDTA in H2O to C− wells • 5) Add 10 μl 50 μCi/ml adenosine 5′-[γ-^33P]triphosphate in H2O to each well • 6) Add 10 μl […] concentrated kinase in Reaction Buffer to each well • 7) Incubate 1 hr at room temperature • 8) Add 10 μl 50 mM EDTA in H2O to each well except to C− wells • 9) Prepare MAPH plates by adding 200 μl 0.75% H3PO4 to each well • 10) Exhaust 0.75% H3PO4 using Millipore vacuum station • 11) Add 60 μl 0.75% H3PO4 to each well of MAPH filter plate • 12) Transfer 30 μl sample per well from assay plate to corresponding well of MAPH filter plate • 13) Incubate 30 min at room temperature • 14) Wash each well of MAPH filter plates 3× with 200 μl 0.75% H3PO4 using Millipore vacuum station • 15) Add 20 μl scintillation liquid to each well of MAPH filter plate • 16) Seal MAPH filter plate • 17) Store MAPH filter plate 30 min in darkness • 18) Quantify radioactivity using scintillation counter (MicroBeta, Perkin-Elmer)
Reaction Volume: 8.0108 μl
IMAP Incubation Time: 60 min
Assay Plate: 384 well U bottom, PP, black, low volume (Corning, 3676)
Compound Plate: 384 well U bottom, PS (Falcon, 3995)
IMAP Binding Buffer A: Molecular Devices, R7282
IMAP Binding Buffer B: Molecular Devices, R7283
IMAP Binding Reagent: Molecular Devices, R7207
Negative Control (C−): no kinase, no inhibitor
Reation buffer: 20 mM Hepes, pH 7.5 • 1 mM DTT • 10 mM MnCl2 • 0.01% Brij35
Kinase: Kinase conc. yielding 50% substrate turnover as determined in titration experiment • c-Raf (Upstate 14-352)
Substrate: 5F1-SGQLIDSMANSFV-NH2 400 nM (jpt Peptide Technologies GmbH, Berlin, Germany)
IMAP Binding Solution: 75% IMAP Binding Buffer A • 25% IMAP Binding Buffer B • IMAP Binding Reagent 1:800
Pipetting Sequence: • 1) Add 6 μl 1.33-fold concentrated substrate+1.33-fold concentrated ATP in 1-fold concentrated reaction buffer to each well of assay plate • 2) Add 10.8 nl 740-fold concentrated inhibitor in 100% DMSO to each well except to C− and C+ wells using pintool (CyBio, Jena, Germany) (starting point: final inhibitor concentration 10 μM; IC50 determination based on dilution series) • 3) Add 10.8 nl 100% DMSO to C− and C+ wells using pintool • 4) Add 2 μl reaction buffer to C− wells • 5) Add 2 μl 4-fold concentrated kinase in reaction buffer to each well except C− wells • 6) Incubate according to reaction time at room temperature • 7) Add 15 μl IMAP binding solution to each well • 8) Incubate according to IMAP incubation time at room temperature • 9) Measure fluorescence polarization (Analyst GT, Molecular Devices)

C-Raf Raf-1 (truncated), active, sequence (P04049 306-648 Y340D/Y341D): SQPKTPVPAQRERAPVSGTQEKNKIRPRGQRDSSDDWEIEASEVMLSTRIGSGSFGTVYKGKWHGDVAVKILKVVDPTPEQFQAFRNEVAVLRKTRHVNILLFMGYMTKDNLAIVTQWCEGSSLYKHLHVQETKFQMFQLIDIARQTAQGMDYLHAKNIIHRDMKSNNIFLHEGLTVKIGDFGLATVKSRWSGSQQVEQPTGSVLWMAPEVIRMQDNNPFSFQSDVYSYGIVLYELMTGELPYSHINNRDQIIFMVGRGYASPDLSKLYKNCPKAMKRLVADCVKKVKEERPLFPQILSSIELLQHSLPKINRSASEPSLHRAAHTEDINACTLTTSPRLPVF
B-Raf delta1-415, sequence (P15056 416-766): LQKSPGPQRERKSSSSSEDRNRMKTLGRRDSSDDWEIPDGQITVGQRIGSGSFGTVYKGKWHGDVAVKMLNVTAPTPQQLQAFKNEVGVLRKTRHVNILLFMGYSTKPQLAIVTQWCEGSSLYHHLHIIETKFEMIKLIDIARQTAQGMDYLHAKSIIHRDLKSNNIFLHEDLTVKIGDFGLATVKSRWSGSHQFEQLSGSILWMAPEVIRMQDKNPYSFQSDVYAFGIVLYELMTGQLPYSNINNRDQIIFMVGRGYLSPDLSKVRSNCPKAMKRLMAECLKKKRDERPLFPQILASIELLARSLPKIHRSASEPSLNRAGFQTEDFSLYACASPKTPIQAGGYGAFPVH

Row | Compound | IC50 (HT-29 tumor cells) | IC50 (B-Raf delta1-415) | IC50 [1]
1 | COn1c(=O)c(-c2cc(NC(=O)C(C)C)ccc2Cl)cc2cnc(Nc3ccccc3)nc21 [Compound 32] | < 10000 nM | > 1000 nM | < 100 nM
2 | COn1c(=O)c(-c2cc(NC(=O)c3cccc(C(F)(F)F)c3)ccc2Cl)cc2cnc(Nc3ccccc3)nc21 [Compound 35] | < 1000 nM | > 1000 nM | < 500 nM
3 | COc1cccc(Nc2ncc3cc(-c4c(Cl)cccc4Cl)c(=O)n(OCCN(C)C)c3n2)c1 [Compound 77, 6-(2,6-Dichlorophenyl)-8-(2-dimethylaminoethyl)oxy-2-(3-methoxyphenyl)amino-pyrido[2,3-d]pyrimidin-7-one] | < 1000 nM | < 100 nM | < 500 nM
4 | COc1cccc(Cl)c1-c1cc2cnc(Nc3ccc(N4CCN(C)CC4)cc3)nc2n(OC)c1=O [Compound 39, 6-(2-Chloro-6-methoxyphenyl)-8-methoxy-2-(4-(4-methylpiperazino)-phenylamino)-pyrido[2,3-d]pyrimidin-7-one] | < 1000 nM | < 500 nM | < 100 nM
5 | COn1c(=O)c(-c2c(Cl)cccc2Cl)cc2cnc(Nc3ccc(N4CCN(C)CC4)cc3)nc21 [Compound 14, 6-(2,6-Dichlorophenyl)-8-methoxy-2-(4-(4-methylpiperazino)-phenylamino)-pyrido[2,3-d]pyrimidin-7-one] | < 1000 nM | < 100 nM | < 100 nM
6 | NCCOCCOn1c(=O)c(-c2c(Cl)cccc2Cl)cc2cnc(Nc3ccccc3)nc21 [Compound 58, 8-(2-(2-Aminoethyloxy)ethyl)oxy-6-(2,6-dichlorophenyl)-2-phenylamino-pyrido[2,3-d]pyrimidin-7-one] | < 1000 nM | < 500 nM | < 500 nM
7 | COn1c(=O)c(-c2c(Cl)cccc2Cl)cc2cnc(Nc3ccncc3)nc21 [Compound 13, 6-(2,6-Dichlorophenyl)-8-methoxy-2-(pyrid-4-ylamino)-pyrido[2,3-d]pyrimidin-7-one] | < 1000 nM | < 100 nM | < 100 nM
8 | COn1c(=O)c(-c2c(Cl)cccc2Cl)cc2cnc(Nc3cc(C(=O)NCCN(C)C)n(C)c3)nc21 [Compound 67, 6-(2,6-Dichlorophenyl)-2-(5-(2-dimethylaminoethyl)aminocarbonyl-1-methyl-pyrrol-3-yl)-amino-8-methoxy-pyrido[2,3-d]pyrimidin-7-one] | < 1000 nM | < 100 nM | < 100 nM
9 | COn1c(=O)c(-c2c(F)cccc2Cl)cc2cnc(Nc3cccc(S(N)(=O)=O)c3)nc21 [Compound 30, 6-(2-Chloro-6-fluorophenyl)-8-methoxy-2-(3-sulfamoylphenylamino)-pyrido[2,3-d]pyrimidin-7-one] | < 1000 nM | < 100 nM | < 100 nM
10 | COc1cccc(Nc2ncc3cc(-c4c(Cl)cccc4Cl)c(=O)n(OCCCN)c3n2)c1 [Compound 71, 8-(3-Aminopropyl)oxy-6-(2,6-dichlorophenyl)-2-(3-methoxyphenyl)amino-pyrido[2,3-d]pyrimidin-7-one] | < 1000 nM | < 100 nM | < 100 nM
11 | NCCCOn1c(=O)c(-c2c(Cl)cccc2Cl)cc2cnc(Nc3ccccc3)nc21 [Compound 55, 8-(3-Aminopropyl)oxy-6-(2,6-dichlorophenyl)-2-phenylamino-pyrido[2,3-d]pyrimidin-7-one] | < 1000 nM | < 500 nM | < 500 nM
12 | COc1cccc(Nc2ncc3cc(-c4c(Cl)cccc4Cl)c(=O)n(OCCO)c3n2)c1 [Compound 73, 6-(2,6-Dichlorophenyl)-8-(2-hydroxyethyl)oxy-2-(3-methoxyphenyl)amino-pyrido[2,3-d]pyrimidin-7-one] | < 1000 nM | < 100 nM | < 100 nM
13 | COn1c(=O)c(-c2cc(NC(=O)c3cccnc3)ccc2Cl)cc2cnc(Nc3ccccc3)nc21 [Compound 31] | < 10000 nM | > 1000 nM | < 100 nM
